Test results: patent publication US10342853B2, “Leptin active peptide having D helix region mutations, coding gene thereof, and application thereof” (SHANGHAI YUANXIN BIOCHEMICAL SCIENCE AND TECHNOLOGY CO. LTD., priority 2015, dated 2019)

System: 3T3-L1 preadipocyte line
Assay: In-vitro lipid-lowering (adipocyte-degrading) activity analysis, MTT detection
Format: cell-based
Method: Lipid degradation activity of the synthesized leptin active peptide having helix D region mutation is analyzed on a cellular level by taking a 3T3-L1 preadipocyte line as a model. Specific operations are as follows:
b: an early differentiation stage D0-D2 (0-2nd day of induced differentiation); and
c: a mature adipocyte stage D9 (the 9th day of induced differentiation);
a. leptin active peptide having helix D region mutation (PEP-D): diluted to 10^−3M with purified water and preserved at −20 degree C. for later use. After an experiment is started, working concentrations have 3 concentration gradients, that is, 10^−6M, 10^−9M and 10^−11M;
b. positive control. I: H-LEP, recombinant human-derived leptin protein (10221-HNAE, Beijing Sino Biological Inc.), diluted to 10^−6M with purified water and preserved at −20 degree C. for later use. After an experiment is started, the working concentration is 10^−9M;
c. positive control 2: Ros (Rosiglitazone, 82408, Sigma), diluted to a stock solution with a concentration of 2518 μM with DMSO and preserved at −20 degree C. for later use. After an experiment is started, the stock solution is diluted to a working solution of 0.5 μM with cell culture fluid;
d. negative control (Control): equivalent quantity of PBS
(1) Inoculating 3T3-L1 preadipocytes in corning cell bind 96-well plates (totally inoculated with 3 plates, respectively plate a, plate b and plate c), wherein the inoculation density is 4500 cells/well; and marking, and standing and culturing at 37 degree C. in a 5% CO2 incubator. Each sample of each plate is operated repeatedly for 3 times, and the whole experiment is repeated for 3 times;
(2) Continuously culturing for 48 hours after the cells are merged to 100% (enabling the cells to exit from a growth cycle, and starting induced differentiation); and
i, taking out the plate a; respectively adding different amounts of leptin active peptide having helix D region mutation (PEP-D) to enable the working concentrations to be respectively 3 concentration gradients, that is, 10^−6M, 10^−9M and 10^−11M; setting 2 positive controls, a negative control (PBS) and a blank control (3 repeated holes are set for each sample), and continuously standing and culturing at 37 degree C. in the 5% CO2 incubator.
ii, when culturing to 45 hours (that is, 3 hours before the end of drug treatment), taking out the plate a, and measuring MTT (preadipocytes). Specific operations: adding 20 μL of 5 mg/mL of MTT solution into each well, continuously standing and culturing at 37 degree C. in the 5% CO2 incubator for 3 hours, sucking and discarding the culture solution in the wells, adding 150 μL of DMSO into each well, horizontally shaking for 10 min, detecting a light absorption value at 492 nm by a microplate reader, and drawing a growth curve;
i, taking out the plate b; adding the differentiation induced liquid I (D0); respectively adding the leptin active peptide having helix D region mutation (PEP-D); setting 2 positive controls, a negative control (PBS) and a blank control (3 repeated holes are set for each sample), and continuously standing and culturing at 37 degree C. in the 5% CO2 incubator.
ii, when culturing to 45 hours (that is, 3 hours before the end of drug treatment), taking out the plate b, and measuring MTT (at the early differentiation stage, D0-D2). Specific operations: adding 20 μL, of 5 mg/mL of MTT solution into each well; continuously standing and culturing at 37 degree C. in the 5% CO2 incubator for 3 hours; sucking and discarding the culture solution in the wells; adding 150 μL of DMSO into each well; horizontally shaking for 10 min; detecting a light absorption value at 492 nm by the microplate reader; and drawing a growth curve;
i, taking out the plate c; adding the differentiation induced liquid I (D0) into each well; and continuously standing and culturing at 37 degree C. in the 5% CO2 incubator for 48 hours; […]

Substance | adipocyte lysis activity vs. negative control (Control, PBS) (MTT, FIG. 2 mark a, P<0.05, H-LEP 10^−9M, Ros 0.5 μM) | adipocyte lysis activity vs. H-LEP (MTT, FIG. 2 mark b, P<0.05) | adipocyte lysis activity vs. Ros (MTT, FIG. 2 mark c, P<0.05) | concentration dependence of lipid-lowering activity (MTT, PEP-D at 10^−6M, 10^−9M and 10^−11M) | concentration with optimal lipid-lowering effect (MTT, of 10^−6M, 10^−9M and 10^−11M tested, on a whole) | dependence of lipid-lowering activity on cell differentiation period (MTT, preadipocytes, D0-D2, D9) | adipocyte-degrading activity compared with positive controls H-LEP and Ros (MTT, three cell differentiation stages (preadipocytes, early differentiation D0-D2, mature adipocyte D9), H-LEP 10^−9M, Ros 0.5 μM) | cell lysis effects at three stages (preadipocytes stage, differentiation stage (D0-D2), mature adipocyte stage (D9))
H-LEP: recombinant human-derived leptin protein (10221-HNAE, Beijing Sino Biological Inc.), positive control | obviously better than that of the negative control |  |  |  |  |  |  | 
STEVVALDGLQGSLQTMLLQLEYS (An amino acid sequence of the leptin active peptide having helix D region mutation) [PEP-D] |  | obviously better than that of the H-LEP | obviously better than that of the Ros | obvious concentration dependence | 10^−9 M | dependence in a cell differentiation period | obviously better than that of positive control-human-derived leptin protein (H-LEP) and a commercially available drug rosiglitazone (Ros) | obvious cell lysis effects
